Test results taken from ChEMBL document CHEMBL3112460, “Successful reduction of off-target hERG toxicity by structural modification of a T-type calcium channel blocker” (Bioorg Med Chem Lett, 2014).
pIC50: −log10 of the molar value.

Assays:
[1] = Half life in Sprague-Dawley rat at 10 mg/kg, po; format: ADME, organism-based; design: dose 10 mg/kg, route oral; conditions: in vivo
[2] = molecular target: Voltage-dependent T-type calcium channel subunit alpha-1G (Homo sapiens, UniProt O43497); assay: Inhibition of T-type calcium channel subunit alpha-1G (unknown origin) expressed in HEK293 cells assessed as inactivation of channel current at holding potential of 30 to 100mV by whole-cell patch clamp method; format: cell-based
[3] = Tmax in Sprague-Dawley rat at 10 mg/kg, po; format: ADME, organism-based; design: dose 10 mg/kg, route oral; conditions: in vivo
[4] = Half life in Sprague-Dawley rat at 10 mg/kg, iv; format: ADME, organism-based; design: dose 10 mg/kg, route intravenous; conditions: in vivo
[5] = molecular target: Voltage-dependent L-type calcium channel subunit alpha-1C (Homo sapiens, UniProt Q13936); assay: Inhibition of L-type calcium channel subunit-1C (unknown origin) expressed in HEK293 cells by whole-cell patch clamp method; format: cell-based
[6] = Half life in human microsomes; format: ADME, Microsome
HEK293 [7] = assay: Selectivity ratio of IC50 for human ERG to IC50 for T-type calcium channel subunit alpha-1G (unknown origin) expressed in human HEK293 cells; format: cell-based
[8] = molecular target: Voltage-gated inwardly rectifying potassium channel KCNH2 (Homo sapiens, UniProt Q12809); assay: Inhibition of human ERG by whole-cell patch clamp method
HEK293 [9] = assay: Selectivity ratio of IC50 for L-type calcium channel subunit-1C (unknown origin) to IC50 for T-type calcium channel subunit alpha-1G (unknown origin) expressed in HEK293 cells; format: cell-based; conditions: Homo sapiens
[10] = Bioavailability in Sprague-Dawley rat at 10 mg/kg, […]; format: ADME, organism-based; conditions: in vivo
[11] = Cmax in Sprague-Dawley rat at 10 mg/kg, po; format: ADME, organism-based; design: dose 10 mg/kg, route oral; conditions: in vivo
[12] = AUC (0 to infinity) in Sprague-Dawley rat at 10 mg/kg, po; format: ADME, organism-based; design: time infinity, dose 10 mg/kg, route oral; conditions: plasma
[13] = AUC (0 to infinity) in Sprague-Dawley rat at 10 mg/kg, iv; format: ADME, organism-based; design: time infinity, dose 10 mg/kg, route intravenous; conditions: plasma
Plasma = assay: Metabolic stability in rat plasma after 2 hrs; format: ADME, cell-free

Voltage-dependent T-type calcium channel subunit alpha-1G, sequence (O43497 whole entry): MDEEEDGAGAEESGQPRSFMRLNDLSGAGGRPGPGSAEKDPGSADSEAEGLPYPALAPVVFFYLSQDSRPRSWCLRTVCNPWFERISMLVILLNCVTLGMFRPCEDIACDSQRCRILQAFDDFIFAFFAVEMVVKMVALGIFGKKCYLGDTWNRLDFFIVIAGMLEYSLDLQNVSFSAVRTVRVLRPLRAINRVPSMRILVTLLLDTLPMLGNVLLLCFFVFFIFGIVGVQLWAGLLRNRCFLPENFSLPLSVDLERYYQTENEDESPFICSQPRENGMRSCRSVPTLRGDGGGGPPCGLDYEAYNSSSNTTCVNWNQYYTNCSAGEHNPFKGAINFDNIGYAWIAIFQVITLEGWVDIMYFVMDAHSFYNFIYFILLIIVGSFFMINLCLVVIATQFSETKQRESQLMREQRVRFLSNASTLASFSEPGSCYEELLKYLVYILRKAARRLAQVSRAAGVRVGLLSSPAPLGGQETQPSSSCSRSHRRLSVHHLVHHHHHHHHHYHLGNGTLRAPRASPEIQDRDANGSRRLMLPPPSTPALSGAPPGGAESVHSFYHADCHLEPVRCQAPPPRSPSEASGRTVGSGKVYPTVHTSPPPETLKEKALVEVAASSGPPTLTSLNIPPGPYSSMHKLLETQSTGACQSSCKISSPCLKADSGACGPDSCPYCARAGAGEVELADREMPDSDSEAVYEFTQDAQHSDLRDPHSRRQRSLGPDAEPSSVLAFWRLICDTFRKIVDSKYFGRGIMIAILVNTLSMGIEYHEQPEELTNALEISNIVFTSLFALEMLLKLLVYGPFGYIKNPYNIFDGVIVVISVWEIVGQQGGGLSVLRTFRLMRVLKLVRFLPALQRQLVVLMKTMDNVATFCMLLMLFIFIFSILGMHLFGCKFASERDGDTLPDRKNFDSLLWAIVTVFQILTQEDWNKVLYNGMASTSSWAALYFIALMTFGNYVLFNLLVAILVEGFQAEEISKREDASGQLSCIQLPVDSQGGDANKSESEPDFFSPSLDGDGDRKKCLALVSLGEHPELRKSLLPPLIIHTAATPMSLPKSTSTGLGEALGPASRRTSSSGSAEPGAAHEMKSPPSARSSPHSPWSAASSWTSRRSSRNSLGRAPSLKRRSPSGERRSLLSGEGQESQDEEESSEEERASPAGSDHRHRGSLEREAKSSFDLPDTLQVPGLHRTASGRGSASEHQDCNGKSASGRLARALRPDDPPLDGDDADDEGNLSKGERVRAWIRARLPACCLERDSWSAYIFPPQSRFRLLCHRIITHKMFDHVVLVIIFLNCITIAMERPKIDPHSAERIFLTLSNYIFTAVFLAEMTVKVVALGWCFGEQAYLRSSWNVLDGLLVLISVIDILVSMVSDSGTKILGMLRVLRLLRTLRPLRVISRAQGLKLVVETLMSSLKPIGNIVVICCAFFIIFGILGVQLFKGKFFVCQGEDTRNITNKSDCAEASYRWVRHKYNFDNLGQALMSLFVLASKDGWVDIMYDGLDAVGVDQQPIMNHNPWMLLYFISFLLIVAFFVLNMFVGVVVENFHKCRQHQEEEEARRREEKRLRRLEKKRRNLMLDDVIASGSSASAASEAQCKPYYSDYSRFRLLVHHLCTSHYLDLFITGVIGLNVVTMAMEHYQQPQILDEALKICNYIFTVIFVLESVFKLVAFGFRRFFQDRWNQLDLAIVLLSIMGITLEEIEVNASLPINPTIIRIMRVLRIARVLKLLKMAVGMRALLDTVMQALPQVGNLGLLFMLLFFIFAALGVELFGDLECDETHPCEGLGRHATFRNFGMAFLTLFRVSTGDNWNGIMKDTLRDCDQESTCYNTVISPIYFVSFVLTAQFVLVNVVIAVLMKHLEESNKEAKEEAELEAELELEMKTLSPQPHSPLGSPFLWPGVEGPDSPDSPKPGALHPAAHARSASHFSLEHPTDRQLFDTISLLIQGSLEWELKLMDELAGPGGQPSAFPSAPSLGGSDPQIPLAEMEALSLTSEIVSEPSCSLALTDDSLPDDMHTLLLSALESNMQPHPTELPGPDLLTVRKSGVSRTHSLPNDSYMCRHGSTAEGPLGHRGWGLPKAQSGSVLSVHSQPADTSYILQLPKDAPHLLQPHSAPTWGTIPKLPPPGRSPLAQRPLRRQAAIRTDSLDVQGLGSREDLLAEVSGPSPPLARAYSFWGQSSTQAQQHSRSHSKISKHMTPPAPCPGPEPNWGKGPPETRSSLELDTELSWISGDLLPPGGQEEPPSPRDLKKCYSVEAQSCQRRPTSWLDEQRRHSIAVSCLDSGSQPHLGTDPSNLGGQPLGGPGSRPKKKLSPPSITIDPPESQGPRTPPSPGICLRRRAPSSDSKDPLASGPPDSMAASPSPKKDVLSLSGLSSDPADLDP
Voltage-gated inwardly rectifying potassium channel KCNH2, sequence (Q12809 whole entry): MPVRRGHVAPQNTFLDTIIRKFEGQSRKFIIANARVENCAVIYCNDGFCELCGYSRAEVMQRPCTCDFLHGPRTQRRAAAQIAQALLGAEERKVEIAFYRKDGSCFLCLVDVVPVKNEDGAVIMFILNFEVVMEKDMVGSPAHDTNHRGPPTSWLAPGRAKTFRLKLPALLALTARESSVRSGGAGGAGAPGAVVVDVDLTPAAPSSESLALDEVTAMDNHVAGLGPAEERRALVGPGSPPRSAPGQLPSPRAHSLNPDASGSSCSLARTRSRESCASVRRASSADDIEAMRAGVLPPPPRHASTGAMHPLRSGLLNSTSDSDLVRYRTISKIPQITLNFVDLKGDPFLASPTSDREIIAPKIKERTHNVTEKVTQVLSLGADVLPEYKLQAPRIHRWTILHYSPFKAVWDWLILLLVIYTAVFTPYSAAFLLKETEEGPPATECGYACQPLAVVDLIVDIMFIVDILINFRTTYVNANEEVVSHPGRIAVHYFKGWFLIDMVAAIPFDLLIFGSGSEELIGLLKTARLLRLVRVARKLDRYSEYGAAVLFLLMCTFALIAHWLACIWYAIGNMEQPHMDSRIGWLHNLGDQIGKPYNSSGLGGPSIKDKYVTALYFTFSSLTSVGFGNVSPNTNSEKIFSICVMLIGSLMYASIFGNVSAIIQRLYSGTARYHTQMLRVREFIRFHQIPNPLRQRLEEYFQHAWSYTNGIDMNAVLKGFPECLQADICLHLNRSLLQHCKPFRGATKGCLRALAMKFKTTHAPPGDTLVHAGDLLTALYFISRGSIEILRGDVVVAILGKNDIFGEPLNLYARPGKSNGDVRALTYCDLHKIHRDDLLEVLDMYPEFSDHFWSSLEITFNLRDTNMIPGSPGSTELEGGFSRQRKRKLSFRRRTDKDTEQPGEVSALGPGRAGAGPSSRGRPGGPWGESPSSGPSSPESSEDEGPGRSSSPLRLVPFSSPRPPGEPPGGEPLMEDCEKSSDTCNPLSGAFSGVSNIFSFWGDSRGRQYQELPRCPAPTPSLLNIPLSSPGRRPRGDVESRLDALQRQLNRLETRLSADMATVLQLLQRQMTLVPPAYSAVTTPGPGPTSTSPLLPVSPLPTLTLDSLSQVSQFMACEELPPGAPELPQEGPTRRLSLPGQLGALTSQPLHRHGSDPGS

half-life [1] [h] | pIC50 [2] | Tmax [3] [h] | half-life [4] [h] | pIC50 [5] | half-life [6] [h] | bioavailability [10] [%] | Cmax [11] [ng/mL] | AUC(0-inf) [12] [ng·h/mL] | AUC(0-inf) [13] [ng·h/mL] | Stability (Plasma) | Structure (SMILES) | Ratio IC50 (HEK293 [7]) | pIC50 [8] | Ratio IC50 (HEK293 [9])
0.795 | 7.25 | 0.5 | 1.76 | 5.27 | 4 | 60.3 | 4580 | 5800 | 9620 | Stable | COC(=O)C(CCC(=O)N(C)CCCc1nc2ccccc2[nH]1)(c1ccc(Br)cc1)C(C)C (stereo unspecified) | > 220 | 4.90 | 96.8
 | 5.49 |  |  |  |  |  |  |  |  |  | COc1ccccc1N1CCN(CCCC(C(=O)O)(c2ccc(Br)cc2)C(C)C)CC1 (stereo unspecified) |  | 5.40 | 
2.21 | 6.18 | 0.5 | 4.9 | 5.23 | 3.67 | 9.2 | 218 | 467 | 5080 | Stable | COC(=O)C(CCC(=O)N1CCN(c2ccccc2OC)CC1)(c1ccc(Br)cc1)C(C)C (stereo unspecified) |  |  | 
 | 5.87 |  |  |  |  |  |  |  |  |  | CC(C)C(CCCN(C)CCCc1nc2ccccc2[nH]1)(C(=O)O)c1ccc(Br)cc1 (stereo unspecified) |  | 5.63 | 
 | 5.58 |  |  |  |  |  |  |  |  |  | COC(=O)C(CCCN1CCC(c2ccccc2OC)CC1)(c1ccc(Br)cc1)C(C)C (stereo unspecified) |  |  | 
 |  |  | 1.3 |  | 2 |  |  |  | 906 | Stable | COC(=O)C(CCCN(C)CCCc1nc2ccccc2[nH]1)(c1ccc(Br)cc1)C(C)C (stereo unspecified) |  |  | 

Structure (SMILES) | half-life [1] [h] | pIC50 [2] | Tmax [3] [h] | half-life [4] [h] | pIC50 [5] | half-life [6] [h] | bioavailability [10] [%] | Cmax [11] [ng/mL] | AUC(0-inf) [12] [ng·h/mL] | AUC(0-inf) [13] [ng·h/mL] | Stability (Plasma) | Ratio IC50 (HEK293 [7]) | pIC50 [8] | Ratio IC50 (HEK293 [9])
COC(=O)C(CCCN1CC=C(c2ccccc2OC)CC1)(c1ccc(Br)cc1)C(C)C (stereo unspecified) |  | 5.49 |  |  |  |  |  |  |  |  |  |  | 5.90 | 
